Assay results taken from patent US20220372031A1, “NOVEL TRICYCLIC AROMATIC HETEROCYCLIC COMPOUND, PREPARATION METHOD THEREFOR, PHARMACEUTICAL COMPOSITION AND APPLICATION THEREOF” (SHANGHAI LONGWOOD BIOPHARMACEUTICALS CO., LTD., priority 2019, published 2022).

These molecules were tested against T1, PD-1/PD-L1 (Homo sapiens, UniProt Q9NZQ7) (assay: PD-1/PD-L1 homogeneous time-resolved fluorescence (HTRF) binding assay). Conditions: PD-1/PD-L1 HTRF binding, ~3 nM PD1, 10 nM PD-L1, 25° C., PBS pH 7.4.
T1 construct: Recombinant human PD-L1 protein (19-238) with a His-tagged at the C-terminus; purchased AcroBiosystems PD1-H5229 (PD-L1); PD1-H5257 (PD-1)
T1 sequence (Q9NZQ7 19-238): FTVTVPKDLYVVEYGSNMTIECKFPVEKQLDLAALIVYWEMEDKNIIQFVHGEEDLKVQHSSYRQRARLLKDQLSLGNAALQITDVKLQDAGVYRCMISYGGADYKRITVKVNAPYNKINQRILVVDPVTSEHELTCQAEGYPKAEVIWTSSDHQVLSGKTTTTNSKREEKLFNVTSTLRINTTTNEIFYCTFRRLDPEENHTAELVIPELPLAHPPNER
Protocol: Assays were performed in standard black 384-well polystyrene plates and a final volume was 20 μL. The inhibitor was first serially diluted with DMSO and added to the wells of the plate, followed by the addition of other reaction components. The final concentration of DMSO in the assay was 1%. Assays were performed at 25° C. in PBS buffer (pH 7.4) containing 0.05% Tween-20 and 0.1% BSA. Recombinant human PD-L1 protein (19-238) with a His-tagged at the C-terminus was purchased from AcroBiosystems (PD1-H5229). Recombinant human PD-1 protein (25-167) with an Fc tag at the C-terminus was also purchased from AcroBiosystems (PD1-H5257). The PD-L1 and PD-1 proteins were diluted in assay buffer and then […] of the solution was extracted and added to the wells of the plate. Plates were centrifuged and proteins and inhibitors were preincubated for 40 minutes. After incubation, 0.1 μl of HTRF detection buffer containing europium […] labeled anti-human IgG (PerkinElmer-AD0212), Fc-specific and anti-His SureLight®-Allophycocyanin (APC, PerkinElmer-AD0059H) conjugated antibodies was added. After centrifugation, the plates were incubated at 25° C. for 60 minutes. Data was read in a PHERAstar FS plate reader (665 nm/620 nm ratio). Final concentrations in the assay were ˜3 nM PD1, 10 nM PD-L1, 1 nM europium anti-human IgG, and 20 nM anti-His-allophycocyanin. Activity data were fitted using GraphPad Prism 5_0 software to derive IC50 values for inhibitors.

Row | Structure (SMILES) | IC50 [nM]
1 | Cc1c(Nc2nccc3cc(CN4CC[C@@H](O)C4)cnc23)cccc1-c1cccc(-c2cc3cc4c(c([N+](=O)[O-])c3o2)CCCC4N2CC(C(=O)O)C2)c1C (stereo partly shown) [Compound 001] | ≤ 10
2 | Cc1c(Nc2nccc3cc(CN4CC[C@@H](O)C4)cnc23)cccc1-c1cccc(-c2cc3cc4c(c(C#N)c3o2)CCCC4N2CC(C(=O)O)C2)c1C (stereo partly shown) [Compound 002] | ≤ 10
3 | COc1nc(-c2cccc(-c3cccc(-c4cc5cc6c(c(C#N)c5o4)CCC6N4CC[C@@H](C(=O)O)C4)c3C)c2C)cnc1CN1CC[C@@H](O)C1 (stereo partly shown) [Compound 003] | ≤ 10
4 | Cc1c(Nc2nccc3cc(CN4CC[C@@H](O)C4)cnc23)cccc1-c1cccc(-c2nc3cc4c(c(C#N)c3o2)CCC4N2CC[C@@H](C(=O)O)C2)c1C (stereo partly shown) [Compound 004] | ≤ 10
5 | N#Cc1c2c(cc3nc(-c4cccc(-c5cccc(Nc6nccc7cc(CN8CC[C@@H](O)C8)cnc67)c5Cl)c4Cl)oc13)C(N1CC[C@@H](C(=O)O)C1)CC2 (stereo partly shown) [Compound 005] | ≤ 10
6 | Cc1c(Nc2nccc3cc(CN4CC[C@@H](O)C4)cnc23)cccc1-c1cccc(-c2nc3cc4c(c(C#N)c3o2)CC[C@@H]4N2CC[C@@H](C(=O)O)C2)c1C [Compound 006] | ≤ 10
7 | Cc1c(Nc2nccc3cc(CN4CC[C@@H](O)C4)cnc23)cccc1-c1cccc(-c2nc3cc4c(c(C#N)c3o2)CC[C@H]4N2CC[C@@H](C(=O)O)C2)c1C [Compound 007] | ≤ 10
8 | COc1nc(-c2cccc(-c3cccc(-c4nc5cc6c(c(C#N)c5o4)CCC6N4CC[C@@H](C(=O)O)C4)c3C)c2C)ccc1CN1CC[C@@H](O)C1 (stereo partly shown) [Compound 008] | ≤ 10
9 | Cc1c(Nc2nccc3cc(CN4CC[C@@H](O)C4)cnc23)cccc1-c1cccc(-c2nc3cc4c(c(C#N)c3o2)CCC4N2CC[C@@H](C(=O)NS(=O)(=O)C3CC3)C2)c1C (stereo partly shown) [Compound 009] | ≤ 10
10 | Cc1c(Nc2nccc3cc(CN4CC[C@@H](O)C4)cnc23)cccc1-c1cccc(-c2nc3cc4c(c(C#N)c3o2)CCC4N2CC[C@@H](C(N)=O)C2)c1C (stereo partly shown) [Compound 010] | ≤ 10
11 | N#Cc1c2c(cc3nc(-c4cccc(-c5cccc(Nc6nccc7cc(CN8CC[C@@H](O)C8)cnc67)c5Cl)c4Cl)oc13)[C@@H](NCCC(=O)O)CC2 [Compound 011] | ≤ 10
12 | N#Cc1c2c(cc3nc(-c4cccc(-c5cccc(Nc6nccc7cc(CN8CC[C@@H](O)C8)cnc67)c5Cl)c4Cl)oc13)[C@@H](NCC(=O)O)CC2 [Compound 012] | ≤ 10
13 | CN(CC(=O)O)[C@H]1CCc2c1cc1nc(-c3cccc(-c4cccc(Nc5nccc6cc(CN7CC[C@@H](O)C7)cnc56)c4Cl)c3Cl)oc1c2C#N [Compound 013] | ≤ 10
14 | Cc1c(Nc2nc(N)nc3cc(CN4CC[C@@H](O)C4)cnc23)cccc1-c1cccc(-c2nc3cc4c(c(C#N)c3o2)CC[C@H]4N2CC[C@@H](C(=O)O)C2)c1C [Compound 015] | ≤ 10
15 | Cc1c(Nc2nc(C(F)F)nc3cc(CN4CC[C@@H](O)C4)cnc23)cccc1-c1cccc(-c2nc3cc4c(c(C#N)c3o2)CC[C@H]4N2CC[C@@H](C(=O)O)C2)c1C [Compound 016] | ≤ 10
16 | Cc1c(Nc2nccc3cc(CN4CC[C@@H](O)C4)cnc23)cccc1-c1cccc(-c2cc3cc4c(c(C#N)c3o2)CCCC4N2CC[C@@H](C(=O)O)C2)c1C (stereo partly shown) [Compound 017] | ≤ 10
17 | Cc1c(Nc2nccc3cc(CN4CC[C@@H](O)C4)cnc23)cccc1-c1cccc(-c2cc3cc4c(c(C#N)c3o2)CCC4N2CC[C@@H](C(=O)O)C2)c1C (stereo partly shown) [Compound 018] | ≤ 10
18 | Cc1c(Nc2nccc3cc(CN4CC[C@@H](O)C4)cnc23)cccc1-c1cccc(-c2cc3cc4c(c(C#N)c3o2)CCCC4N2CC[C@@H](O)C2)c1C (stereo partly shown) [Compound 019] | ≤ 10
19 | Cc1c(Nc2nccc3cc(CN4CC[C@@H](O)C4)cnc23)cccc1-c1cccc(-c2cc3cc4c(c(C#N)c3o2)CCC4N2CC[C@@H](O)C2)c1C (stereo partly shown) [Compound 020] | ≤ 10
20 | N#Cc1c2c(cc3cc(-c4cccc(-c5cccc(Nc6nccc7cc(CN8CC[C@@H](O)C8)cnc67)c5Cl)c4Cl)oc13)C(N1CC[C@@H](C(=O)O)C1)CC2 (stereo partly shown) [Compound 021] | ≤ 10
21 | Cc1c(Nc2nccc3cc(CN4CC[C@@H](O)C4)cnc23)cccc1-c1cccc(-c2cc3cc4c(c(C#N)c3o2)CC[C@@H]4N)c1C [Compound 022] | ≤ 10
22 | Cc1c(Nc2nccc3cc(CN4CC[C@@H](O)C4)cnc23)cccc1-c1cccc(-c2cc3cc4c(c(C#N)c3o2)CCCC4NCCO)c1C (stereo partly shown) [Compound 023] | ≤ 10
23 | Cc1c(Nc2nccc3cc(CN4CC[C@@H](O)C4)cnc23)cccc1-c1cccc(-c2nc3cc4c(c(C#N)c3o2)CCC4N2CC[C@@H](C(=O)O)C2)c1Cl (stereo partly shown) [Compound 026] | ≤ 10
24 | Cc1c(-c2nc3cc4c(c(C#N)c3o2)CCC4N2CC[C@@H](C(=O)O)C2)cccc1-c1cccc(Nc2nccc3cc(CN4CC[C@@H](O)C4)cnc23)c1Cl (stereo partly shown) [Compound 027] | ≤ 10
25 | Cc1c(Nc2nccc3cc(CN4CC[C@@H](O)C4)cnc23)cccc1-c1cccc(-c2nc3cc4c(c(C#N)c3o2)CCC4NCCC(=O)O)c1C (stereo partly shown) [Compound 028] | ≤ 10
26 | N#Cc1c2c(cc3nc(-c4cccc(-c5cccc(Nc6nccc7cc(CN8CC[C@@H](O)C8)cnc67)c5Cl)c4Cl)oc13)[C@@H](N1CC[C@@H](C(=O)O)C1)CC2 [Compound 029] | ≤ 10

Next, values leading:

Row | IC50 [nM] | Structure (SMILES)
27 | ≤ 10 | N#Cc1c2c(cc3nc(-c4cccc(-c5cccc(Nc6nccc7cc(CN8CC[C@@H](O)C8)cnc67)c5Cl)c4Cl)oc13)[C@H](N1CC[C@@H](C(=O)O)C1)CC2 [Compound 030]
28 | ≤ 10 | N#Cc1c2c(cc3nc(-c4cccc(-c5cccc(Nc6nccc7cc(CN8CC[C@@H](O)C8)cnc67)c5Cl)c4Cl)oc13)[C@H](NCCC(=O)O)CC2 [Compound 031]
29 | ≤ 10 | Cc1c(Nc2nccc3cc(CN4CC[C@@H](O)C4)cnc23)cccc1-c1cccc(-c2nc3cc4c(c(C#N)c3o2)CC[C@H]4N2CC[C@@H](C(=O)NS(=O)(=O)C3CC3)C2)c1C [Compound 032]
30 | ≤ 10 | COc1nc(-c2cccc(-c3cccc(-c4nc5cc6c(c(C#N)c5o4)CC[C@H]6N4CC[C@@H](C(=O)NS(=O)(=O)C5CC5)C4)c3C)c2C)ccc1CN1CC[C@@H](O)C1 [Compound 034]
31 | ≤ 10 | COc1nc(-c2cccc(-c3cccc(-c4nc5cc6c(c(C#N)c5o4)CC[C@H]6N4CC[C@@H](C(=O)NS(=O)(=O)C5CC5)C4)c3Cl)c2Cl)ccc1CN1CC[C@@H](O)C1 [Compound 035]
32 | ≤ 10 | COc1nc(-c2cccc(-c3cccc(-c4nc5cc6c(c(C#N)c5o4)CC[C@H]6N4CC[C@@H](C(=O)NS(=O)(=O)C5CC5)C4)c3C)c2C)cnc1CN1CC[C@@H](O)C1 [Compound 036]
33 | ≤ 10 | COc1nc(-c2cccc(-c3cccc(-c4nc5cc6c(c(C#N)c5o4)CC[C@H]6N4CC[C@@H](C(=O)NS(=O)(=O)C5CC5)C4)c3Cl)c2Cl)cnc1CN1CC[C@@H](O)C1 [Compound 037]
34 | ≤ 10 | COc1nc(-c2cccc(-c3cccc(-c4nc5cc6c(c(C#N)c5o4)CC[C@@H]6NCCC(=O)O)c3Cl)c2Cl)cnc1CN1CC[C@@H](O)C1 [Compound 038]
35 | ≤ 10 | COc1nc(-c2cccc(-c3cccc(-c4nc5cc6c(c(C#N)c5o4)CC[C@H]6NCCC(=O)O)c3Cl)c2Cl)cnc1CN1CC[C@@H](O)C1 [Compound 039]
36 | ≤ 10 | Cc1c(Nc2nccc3cc(CN4CC[C@@H](O)C4)cnc23)cccc1-c1cccc(-c2nc3cc4c(c(C#N)c3o2)CC[C@H]4N2CC[C@@H](C(=O)O)C2)c1Cl [Compound 040]
37 | ≤ 10 | N#Cc1c2c(cc3nc(-c4cccc(-c5cccc(Nc6nccc7cc(CN8CC[C@@H](O)C8)cnc67)c5Cl)c4Cl)oc13)[C@@H](NCC(=O)NS(=O)(=O)C1CC1)CC2 [Compound 042]
38 | 10 to 100 | CCOC(=O)CN[C@H]1CCc2c1cc1nc(-c3cccc(-c4cccc(Nc5nccc6cc(CN7CC[C@@H](O)C7)cnc56)c4Cl)c3Cl)oc1c2C#N [Compound 043]
39 | ≤ 10 | Cc1c(-c2nc3cc4c(c(C#N)c3o2)CC[C@H]4N2CC[C@@H](C(=O)O)C2)cccc1-c1cccc(Nc2nc(C(F)F)nc3cc(CN4CC[C@@H](O)C4)cnc23)c1Cl [Compound 081]
40 | ≤ 10 | Cc1c(Nc2nc(C(F)F)nc3cc(CN4CC[C@@H](O)C4)cnc23)cccc1-c1cccc(-c2nc3cc4c(c(C#N)c3o2)CC[C@H]4N2CC[C@@H](C(=O)O)C2)c1Cl [Compound 082]
41 | ≤ 10 | N#Cc1c2c(cc3nc(-c4cccc(-c5cccc(Nc6nc(C(F)F)nc7cc(CN8CC[C@@H](O)C8)cnc67)c5Cl)c4Cl)oc13)[C@H](N1CC[C@@H](C(=O)O)C1)CC2 [Compound 083]
42 | ≤ 10 | COc1nc(-c2cccc(-c3cccc(-c4nc5cc6c(c(C#N)c5o4)CC[C@H]6N4CC[C@@H](C(=O)NS(=O)(=O)C5(C)CC5)C4)c3C)c2C)cnc1CN1CC[C@@H](O)C1 [Compound 084]
43 | ≤ 10 | COc1nc(-c2cccc(-c3cccc(-c4nc5cc6c(c(C#N)c5o4)CC[C@H]6N4CC[C@@H](C(=O)NS(=O)(=O)C5(C)CC5)C4)c3Cl)c2Cl)cnc1CN1CC[C@@H](O)C1 [Compound 086]
